Measured values reported in US10508085B2, “Compounds and methods for IDO and TDO modulation, and indications therefor” (Plexxikon Inc., priority 2016, dated 2019).

What was measured:
[1] = molecular target: T1, Human Indoleamine 2,3-dioxygenase (IDO) (Homo sapiens, UniProt P14902); assay: Human IDO enzymatic assay (kynurenine level); format: biochemical; conditions: 6 nM IDO, 10 μM L-Trp; geometric mean; read-out: IDO1 GMean: IC50 (μM) (Biochemical Assay)
T1 construct: His tag (N); made in house; host or cells: E. coli
How it was run: (§1)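 N-terminally His-tagged enzymes expressed in E. coli were run in 50 mM sodium phosphate pH 6.5 with 10 mM ascorbate, catalase and Tween 20. IDO: 6 nM enzyme, 10 μM L-Trp, 5 μM methylene blue, 20 min RT. TDO: 1 nM enzyme, 350 μM L-Trp, 0.4 μM methylene blue, 70 min RT.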

[2] = molecular target: T2, Human Tryptophan 2,3-dioxygenase (TDO) (Homo sapiens, UniProt P48775); assay: Human TDO enzymatic assay (kynurenine level); format: biochemical; conditions: 1 nM TDO, 350 μM L-Trp; geometric mean; read-out: TDO GMean: IC50 (μM) (Biochemical Assay)
T2 construct: His tag (N); made in house; host or cells: E. coli
How it was run: as §1

[3] = molecular target: T3, human IDO (IDO1-expressing HEK293 cells) (Homo sapiens, UniProt P14902); assay: Cell based kynurenine assay, IDO1-expressing HEK293 cell clones; conditions: IDO1-expressing HEK293 cells, 24 hours incubation; geometric mean; read-out: HEK293 IDO1 Kynurenine GMean IC50 (μM) (Cellular Assay)
T3 construct: expressed in transfected cells
Procedure: (§2) Determine Inhibitor Activity Against IDO or TDO in Cell Based Kynurenine Assay
(§3) IDO1-expressing or TDO-expressing HEK293 cell clones are generated upon stable transfection of plasmids expressing human IDO or human TDO under the control of CMV promoter. Cells are selected in DMEM media supplemented with 10% fetal bovine serum and 1 mg/ml G418 at 37° C. in a humidified incubator supplied with 5% CO2. The assays are performed as follows.
(§4) Cells were seeded in a 96 well plate in 50 μL of culture media at a density of 2.5×10^4 per well. Serial dilutions of compounds (in total volume of 50 μL culture media) are added into cells. 4 wells containing 0.2% DMSO treated cells serve as high controls and 4 wells containing media only with 0.2% DMSO serve as low controls. After 24 hours of incubation, the supernatant was transferred to a 384 well reaction plate and the kynurenine level determined. The percentage inhibition at individual concentrations relative to high and low controls is calculated. The data is analyzed by using nonlinear regression to generate IC50 values.

[4] = molecular target: T4, human TDO (TDO-expressing HEK293 cells) (Homo sapiens, UniProt P48775); assay: Cell based kynurenine assay, TDO-expressing HEK293 cell clones; conditions: TDO-expressing HEK293 cells, 24 hours incubation; geometric mean; read-out: HEK293 TDO Kynurenine GMean IC50 (μM) (Cellular Assay)
T4 construct: expressed in transfected cells
Procedure: as §2, §3, §4

T3 sequence (P14902 whole entry): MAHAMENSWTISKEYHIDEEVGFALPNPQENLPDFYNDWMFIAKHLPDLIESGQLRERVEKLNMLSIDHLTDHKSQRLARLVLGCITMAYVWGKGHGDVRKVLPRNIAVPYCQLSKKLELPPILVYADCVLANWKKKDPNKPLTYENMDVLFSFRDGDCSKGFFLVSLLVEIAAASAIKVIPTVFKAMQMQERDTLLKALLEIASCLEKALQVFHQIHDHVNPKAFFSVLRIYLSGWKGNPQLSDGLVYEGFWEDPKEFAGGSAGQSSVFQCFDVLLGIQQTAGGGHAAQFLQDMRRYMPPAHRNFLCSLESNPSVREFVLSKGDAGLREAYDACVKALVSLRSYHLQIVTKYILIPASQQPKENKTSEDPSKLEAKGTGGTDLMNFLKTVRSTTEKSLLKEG
T1 sequence (P14902 whole entry): as above
T4 sequence (P48775 whole entry): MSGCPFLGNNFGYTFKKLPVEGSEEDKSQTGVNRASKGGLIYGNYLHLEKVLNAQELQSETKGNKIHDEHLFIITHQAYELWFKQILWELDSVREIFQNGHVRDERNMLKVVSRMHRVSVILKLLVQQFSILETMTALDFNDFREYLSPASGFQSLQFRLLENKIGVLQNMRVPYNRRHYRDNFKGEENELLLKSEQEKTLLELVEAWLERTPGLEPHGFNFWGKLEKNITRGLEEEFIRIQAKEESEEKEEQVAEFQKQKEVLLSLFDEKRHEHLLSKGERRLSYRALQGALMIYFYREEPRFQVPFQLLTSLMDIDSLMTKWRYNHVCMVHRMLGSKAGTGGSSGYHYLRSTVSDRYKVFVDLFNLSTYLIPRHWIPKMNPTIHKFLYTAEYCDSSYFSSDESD
T2 sequence (P48775 whole entry): as above

O=S(=O)(NC1CC(O)(c2cc(Cl)cc3cn[nH]c23)C1)c1ccccc1 (stereo not shown) [Compound P-0044, N-(3-(5-chloro-1H-indazol-7-yl)-3-hydroxycyclobutyl)benzenesulfonamide]
IC50 [1]: 100 to 200 µM
IC50 [2]: 10 to 100 µM
IC50 [3]: > 10 µM
IC50 [4]: > 10 µM

O=S(=O)(NC1CC(O)(c2cc(Cl)cc3cn[nH]c23)C1)C1CC1 (stereo not shown) [Compound P-0045, N-(3-(5-chloro-1H-indazol-7-yl)-3-hydroxycyclobutyl)cyclopropanesulfonamide]
IC50 [1]: 10 to 100 µM
IC50 [2]: 0.0001 to 10 µM
IC50 [3]: > 10 µM
IC50 [4]: 0.0001 to 10 µM

CC1(C)CC(O)(c2cc(Cl)cc3cn[nH]c23)CCN1S(C)(=O)=O (stereo not shown) [Compound P-0046, 4-(5-chloro-1H-indazol-7-yl)-2,2-dimethyl-1-(methylsulfonyl)piperidin-4-ol]
IC50 [1]: 0.0001 to 10 µM
IC50 [2]: 0.0001 to 10 µM
IC50 [3]: > 10 µM
IC50 [4]: > 10 µM

O=S1(=O)CCC(O)(c2cc(Cl)cc3cn[nH]c23)CC1 [Compound P-0047, 4-(5-chloro-1H-indazol-7-yl)-4-hydroxytetrahydro-2H-thiopyran 1,1-dioxide]
IC50 [1]: 0.0001 to 10 µM
IC50 [2]: 0.0001 to 10 µM
IC50 [3]: > 10 µM
IC50 [4]: 0.0001 to 10 µM

OC1(c2cc(Cl)cc3cn[nH]c23)CC2(CCCC2)C1 [Compound P-0048, 2-(5-chloro-1H-indazol-7-yl)spiro[3.4]octan-2-ol]
IC50 [1]: 0.0001 to 10 µM
IC50 [2]: 0.0001 to 10 µM
IC50 [3]: 0.0001 to 10 µM
IC50 [4]: 0.0001 to 10 µM

Cc1ccc2cn[nH]c2c1C(O)C1(C(F)(F)F)CCCC1 (stereo not shown) [Compound P-0049, (6-methyl-1H-indazol-7-yl)(1-(trifluoromethyl)cyclopentyl)methanol]
IC50 [1]: 0.0001 to 10 µM
IC50 [2]: 0.0001 to 10 µM
IC50 [3]: 0.0001 to 10 µM
IC50 [4]: 0.0001 to 10 µM

CC1(C(O)c2cc3c(c4cn[nH]c24)CCCC3)CCCCC1 (stereo not shown) [Compound P-0050, (1-methylcyclohexyl)(6,7,8,9-tetrahydro-3H-benzo[e]indazol-4-yl)methanol]
IC50 [1]: 0.0001 to 10 µM
IC50 [2]: 0.0001 to 10 µM
IC50 [3]: 0.0001 to 10 µM
IC50 [4]: > 10 µM

OC1(c2cc(Cl)cc3cn[nH]c23)CC2(CCCCC2)C1 [Compound P-0051, 2-(5-chloro-1H-indazol-7-yl)spiro[3.5]nonan-2-ol]
IC50 [1]: 0.0001 to 10 µM
IC50 [2]: 0.0001 to 10 µM
IC50 [3]: 0.0001 to 10 µM
IC50 [4]: 0.0001 to 10 µM

CC1(C(O)c2c(F)c(Cl)cc3cn[nH]c23)CCCCC1 (stereo not shown) [Compound P-0052, (5-chloro-6-fluoro-1H-indazol-7-yl)(1-methylcyclohexyl)methanol]
IC50 [1]: 0.0001 to 10 µM
IC50 [2]: 0.0001 to 10 µM
IC50 [3]: 0.0001 to 10 µM
IC50 [4]: 0.0001 to 10 µM

OC(c1cc(Cl)cc2cn[nH]c12)C1(C(F)(F)F)CCCC1 (stereo not shown) [Compound P-0053, (5-chloro-1H-indazol-7-yl)(1-(trifluoromethyl)cyclopentyl)methanol]
IC50 [1]: 0.0001 to 10 µM
IC50 [2]: 0.0001 to 10 µM
IC50 [3]: 0.0001 to 10 µM
IC50 [4]: 0.0001 to 10 µM

CC1(C(O)c2c3c(cc4cn[nH]c24)CC3)CCCCC1 (stereo not shown) [Compound P-0054, (5,6-dihydro-1H-cyclobuta[f]indazol-7-yl)(1-methylcyclohexyl)methanol]
IC50 [1]: 0.0001 to 10 µM
IC50 [2]: 0.0001 to 10 µM
IC50 [3]: 0.0001 to 10 µM
IC50 [4]: > 10 µM

CC1(C(O)c2cc(Cl)c(F)c3cn[nH]c23)CCCCC1 (stereo not shown) [Compound P-0055, (5-chloro-4-fluoro-1H-indazol-7-yl)(1-methylcyclohexyl)methanol]
IC50 [1]: 0.0001 to 10 µM
IC50 [2]: 0.0001 to 10 µM
IC50 [3]: 0.0001 to 10 µM
IC50 [4]: 0.0001 to 10 µM

OC(c1cccc2cncn12)C1CCCC1 (stereo not shown) [Compound P-0058, cyclopentyl(imidazo[1,5-a]pyridin-5-yl)methanol]
IC50 [1]: 0.0001 to 10 µM
IC50 [2]: 0.0001 to 10 µM
IC50 [3]: 0.0001 to 10 µM
IC50 [4]: > 10 µM

OC(c1cccc2cncn12)C1CC2CCC1C2 (stereo not shown) [Compound P-0059, bicyclo[2.2.1]heptan-2-yl(imidazo[1,5-a]pyridin-5-yl)methanol]
IC50 [1]: 0.0001 to 10 µM
IC50 [2]: 0.0001 to 10 µM
IC50 [3]: 0.0001 to 10 µM
IC50 [4]: > 10 µM

OC(c1cccc2cncn12)C1CCCCC1 (stereo not shown) [Compound P-0060, cyclohexyl(imidazo[1,5-a]pyridin-5-yl)methanol]
IC50 [1]: 0.0001 to 10 µM
IC50 [2]: 0.0001 to 10 µM
IC50 [3]: 0.0001 to 10 µM
IC50 [4]: > 10 µM

CC1(C(O)c2cccc3cncn23)CCCCC1 (stereo not shown) [Compound P-0061, imidazo[1,5-a]pyridin-5-yl(1-methylcyclohexyl)methanol]
IC50 [1]: 0.0001 to 10 µM
IC50 [2]: 0.0001 to 10 µM
IC50 [3]: 0.0001 to 10 µM
IC50 [4]: > 10 µM

OC(c1cccc2cncn12)C1(F)CCC(F)(F)CC1 (stereo not shown) [Compound P-0062, imidazo[1,5-a]pyridin-5-yl(1,4,4-trifluorocyclohexyl)methanol]
IC50 [1]: 0.0001 to 10 µM
IC50 [2]: 0.0001 to 10 µM
IC50 [3]: > 10 µM
IC50 [4]: > 10 µM

OC(c1cccc2cncn12)C1CCCCCCC1 (stereo not shown) [Compound P-0063]
IC50 [1]: 0.0001 to 10 µM
IC50 [2]: 0.0001 to 10 µM
IC50 [3]: > 10 µM
IC50 [4]: > 10 µM

OC(CCc1ccccc1)c1cccc2cncn12 (stereo not shown) [Compound P-0074, 1-(imidazo[1,5-a]pyridin-5-yl)-3-phenylpropan-1-ol]
IC50 [1]: 0.0001 to 10 µM
IC50 [2]: 10 to 100 µM
IC50 [3]: > 10 µM
IC50 [4]: > 10 µM

CC(C)(C)OC(=O)N1CCC(C(O)c2cccc3cncn23)CC1 (stereo not shown) [Compound P-0076, tert-butyl 4-(hydroxy(imidazo[1,5-a]pyridin-5-yl)methyl)piperidine-1-carboxylate]
IC50 [1]: 10 to 100 µM
IC50 [2]: 0.0001 to 10 µM
IC50 [3]: > 10 µM
IC50 [4]: > 10 µM

OC(CC1CCCCC1)c1cccc2cncn12 (stereo not drawn) [Compound P-0079, 2-cyclohexyl-1-(imidazo[1,5-a]pyridin-5-yl)ethan-l-ol]
IC50 [1]: 0.0001 to 10 µM
IC50 [2]: 0.0001 to 10 µM
IC50 [3]: 0.0001 to 10 µM
IC50 [4]: > 10 µM

OC(c1cccc2cncn12)C1CCC1 (stereo not shown) [Compound P-0080, cyclobutyl(imidazo[1,5-a]pyridin-5-yl)methanol]
IC50 [1]: 0.0001 to 10 µM
IC50 [2]: 0.0001 to 10 µM
IC50 [3]: > 10 µM
IC50 [4]: > 10 µM

OC(c1cccc2cncn12)C1CCC(F)(F)CC1 (stereo not shown) [Compound P-0081, (4,4-difluorocyclohexyl)(imidazo[1,5-a]pyridin-5-yl)methanol]
IC50 [1]: 0.0001 to 10 µM
IC50 [2]: 0.0001 to 10 µM
IC50 [3]: > 10 µM
IC50 [4]: > 10 µM

CC1(C(O)c2cc(Br)cc3cncn23)CCCCC1 (stereo not shown) [Compound P-0082, (7-bromoimidazo[1,5-a]pyridin-5-yl)(1-methylcyclohexyl)methanol]
IC50 [1]: 0.0001 to 10 µM
IC50 [2]: 0.0001 to 10 µM
IC50 [3]: 0.0001 to 10 µM
IC50 [4]: 0.0001 to 10 µM

CC1(C(O)c2cc(Cl)cc3cncn23)CCCCC1 (stereo not shown) [Compound P-0083, (7-Chloroimidazo[1,5-a]pyridin-5-yl)(1-methylcyclohexyl)methanol]
IC50 [1]: 0.0001 to 10 µM
IC50 [2]: 0.0001 to 10 µM
IC50 [3]: 0.0001 to 10 µM
IC50 [4]: 0.0001 to 10 µM

OC(CC1CCOCC1)c1cccc2cncn12 (stereo not drawn) [Compound P-0084, 1-(imidazo[1,5-a]pyridin-5-yl)-2-(tetrahydro-2H-pyran-4-yl)ethan-l-ol]
IC50 [1]: 0.0001 to 10 µM
IC50 [2]: 0.0001 to 10 µM
IC50 [3]: > 10 µM
IC50 [4]: > 10 µM

CC(C)(C)OC(=O)N1CCC(CC(O)c2cccc3cncn23)CC1 (stereo not drawn) [Compound P-0085, tert-butyl 4-(2-hydroxy-2-(imidazo[1,5-a]pyridin-5-yl)ethyl)piperidine-l-carboxylate]
IC50 [1]: 0.0001 to 10 µM
IC50 [2]: 0.0001 to 10 µM
IC50 [3]: > 10 µM
IC50 [4]: > 10 µM

CC(C)(C1CCCCC1)C(O)c1cc(Cl)cc2cncn12 (stereo not shown) [Compound P-0086, 1-(7-chloroimidazo[1,5-a]pyridin-5-yl)-2-cyclohexyl-2-methylpropan-1-ol]
IC50 [1]: 0.0001 to 10 µM
IC50 [2]: 0.0001 to 10 µM
IC50 [3]: 0.0001 to 10 µM
IC50 [4]: 0.0001 to 10 µM

OC(c1cccc2cncn12)C12CC3CC(CC(C3)C1)C2 [Compound P-0087, ((1S,3s)-adamantan-1-yl)(imidazo[1,5-a]pyridin-5-yl)methanol]
IC50 [1]: 0.0001 to 10 µM
IC50 [2]: 0.0001 to 10 µM
IC50 [3]: 0.0001 to 10 µM
IC50 [4]: > 10 µM

CC1(C(O)c2c(Cl)ccc3cncn23)CCCCC1 (stereo not shown) [Compound P-0088, (6-chloroimidazo[1,5-a]pyridin-5-yl)(1-methylcyclohexyl)methanol]
IC50 [1]: 0.0001 to 10 µM
IC50 [2]: 0.0001 to 10 µM
IC50 [3]: 0.0001 to 10 µM
IC50 [4]: > 10 µM

CC1(C)CN(c2cc(Cl)cc3cn[nH]c23)CCN1S(C)(=O)=O [Compound P-0089, 5-chloro-7-(3,3-dimethyl-4-(methylsulfonyl)piperazin-1-yl)-1H-indazole]
IC50 [1]: 0.0001 to 10 µM
IC50 [2]: 0.0001 to 10 µM
IC50 [3]: 0.0001 to 10 µM
IC50 [4]: 0.0001 to 10 µM
